Earlier results, collected in US20060257434A1, “Production of emulsions of pharmaceutical compositions” (priority 2005, published 2006).

Settings: over a physiological pH range

For `CCCn1c(=O)c2[nH]c(C34CC5CC(CC3C5)C4)nc2n(CCC)c1=O` [KW-3902, 8-(3-noradamantyl)-1,3-dipropylxanthine], the solubility is given as “less than 1 μg/ml”.
